In BindingDB's records for patent US20230312583 (Shengke Pharmaceuticals (Jiangsu), 2023):

Target: Mast/stem cell growth factor receptor Kit (Homo sapiens, UniProt P10721)
Experiment: Biological Assay
Description: Reactions were carried out in the presence of 10 μM ATP. […] The radioactive phosphorylated substrate remaining on the filter paper was measured.

Chain of Mast/stem cell growth factor receptor Kit (P10721 whole entry): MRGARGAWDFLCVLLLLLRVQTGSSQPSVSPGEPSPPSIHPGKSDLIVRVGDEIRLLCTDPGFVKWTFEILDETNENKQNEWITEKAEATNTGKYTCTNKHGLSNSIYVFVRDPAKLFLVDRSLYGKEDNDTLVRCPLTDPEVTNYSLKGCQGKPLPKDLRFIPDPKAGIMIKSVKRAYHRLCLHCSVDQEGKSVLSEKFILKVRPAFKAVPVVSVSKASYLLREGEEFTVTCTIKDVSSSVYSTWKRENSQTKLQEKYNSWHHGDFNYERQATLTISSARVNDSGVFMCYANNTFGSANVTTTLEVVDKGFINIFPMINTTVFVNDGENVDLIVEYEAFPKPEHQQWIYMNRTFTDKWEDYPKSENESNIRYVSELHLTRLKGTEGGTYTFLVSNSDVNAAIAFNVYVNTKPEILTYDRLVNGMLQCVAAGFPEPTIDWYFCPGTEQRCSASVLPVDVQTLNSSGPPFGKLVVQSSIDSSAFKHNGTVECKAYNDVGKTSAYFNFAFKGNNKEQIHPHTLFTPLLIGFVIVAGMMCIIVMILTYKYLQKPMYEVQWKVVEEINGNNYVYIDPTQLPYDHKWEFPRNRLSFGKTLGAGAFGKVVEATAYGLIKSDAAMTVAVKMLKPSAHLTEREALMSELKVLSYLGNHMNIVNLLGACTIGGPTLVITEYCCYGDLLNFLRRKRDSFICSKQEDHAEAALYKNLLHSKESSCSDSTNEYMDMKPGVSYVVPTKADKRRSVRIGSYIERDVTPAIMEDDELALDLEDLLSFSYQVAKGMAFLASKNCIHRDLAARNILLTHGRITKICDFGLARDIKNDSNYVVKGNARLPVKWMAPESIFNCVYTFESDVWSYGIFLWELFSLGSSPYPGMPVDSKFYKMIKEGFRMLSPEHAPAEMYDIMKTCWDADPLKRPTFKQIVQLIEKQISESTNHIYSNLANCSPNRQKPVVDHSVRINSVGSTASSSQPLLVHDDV

IC50: 93.2 nM
SMILES: CC#CCOc1cc(Nc2ncc3ccc4ncn(C(C)C)c4c3n2)ncc1N1CCNCC1 [US20230312583, Compound I-13]
